# Assays:
# [1] = test system: HT-29 colorectal cancer cells; assay: Tumor-treating effect in vivo, tumor volume depending on time, HT-29 tumor animal model; design: species or system athymic nude mice; conditions: HT-29 tumor in nude mice; FDOX or DOX 4 mg/kg intravenously, anti-PD-L1 antibody 10 mg/kg intraperitoneally, 3-day intervals
# Method: The following comparison groups were prepared to compare the efficiency of the test group.
# Control group (control): identical to the test group except that no drug was administered.
# First comparison group (FDOX): identical to the test group except that only the formulated drug conjugate (FDOX) was administered without the anti-PD-L1 antibody.
# Second comparison group (DOX+PD-L1 Ab): identical to the test group except that 4 mg/kg of doxorubicin was administered intravenously instead of the formulated drug conjugate (FDOX).
# [2] = design: species or system athymic nude mice; conditions: mouse, in vivo
# Method: For the animal models of the second and third comparison groups, the organs were extracted on day 20 after the drug administration because the animals died within 20 days. After preparing tissues of each extracted organ into 10-μm thick sections, cell death in the organ was evaluated by staining cancerous tissues with annexin V. In addition, the tissues extracted from the major organs (heart, kidney, spleen, lung and liver) were stained with hematoxylin and eosin for investigation of the structural change in the tissues and toxicity.
# [3] = In-vivo toxicity by body weight depending on time, and death, in tumor-bearing mice; conditions: HT-29 tumor-bearing nude mice
# Method: Specifically, athymic nude mice (6-week-old, 20-25 g, male) purchased from Nara Bio (Gyenggi-do, Korea) were used. In order to express colorectal cancers in the male nude mice, a tumor animal model was prepared by subcutaneously inoculating 1×10^7 HT-29 colorectal cancer cells into left thighs. […] The formulated drug conjugate (FDOX) was administered intravenously at a concentration of 4 mg/kg, and the anti-PD-L1 antibody was administered intraperitoneally at a concentration of 10 mg/kg. A test group (FDOX+PD-L1 Ab) was prepared by administering the two therapeutic agents at 3-day intervals.
# For the test group, the control group and the first, second and third comparison groups, tumor size was measured at 2-day intervals and calculated as maximum diameter×minimum diameter. In addition, the body weight of each group was measured at 2-day intervals to investigate in-vivo toxicity.
structure (smiles),measurement,setting,value
"COc1cccc2c1C(=O)c1c(O)c3c(c(O)c1C2=O)C[C@@](O)(C(=O)CO)C[C@@H]3O[C@H]1C[C@H](N)[C@H](O)[C@H](C)O1 [DOX, doxorubicin]",tumor growth (tumor volume depending on time),[1],could be delayed but could not be completely inhibited
same,change in the major organs (H&E),[2],"long-term toxicity such as hemorrhage, disruption of tissue structure, enucleation"
same,in-vivo / systemic toxicity,[3],fatal side effect leading to death

# Source: patent publication US11498946B2, “Pharmaceutical composition for combination therapy for preventing or treating cancer containing tumor-specific drug conjugate and anti-PD-L1 antibody as active ingredients” (KOREA INSTITUTE OF SCIENCE AND TECHNOLOGY, priority 2019, dated 2022)
